# In publication PMC11087268, “A folate inhibitor exploits metabolic differences in Pseudomonas aeruginosa for narrow-spectrum targeting” (Nature Microbiology, 2024):
# Values joined by “and” are separate entries in the source; they are usually repeats but may differ in a detail not shown here. Equal entries are not always repeated.
# Assays:
# E. coli MG1655 = test: Growth of E. coli MG1655 in TMI-supplemented media with fluorofolin; assay type: cell-based, Escherichia coli
# P. aeruginosa PA14 = test: In vivo PA14 murine thigh infection; conditions: neutropenic CD-1 mice, 24 h post infection; fluorofolin 25 mg kg^−1 subcutaneous and/or SMX 100 mg kg^−1 intraperitoneal at 1 and 12 h; one value per mouse
# Source text: For P. aeruginosa thigh infection model and maximum tolerated dose (MTD) studies, care and handling of female 5–6-week-old CD-1 conformed to Institutional Animal Care and Use Committee (IACUC) policies as carried out at the University of North Texas Health Science Center (Fort Worth, Texas) under UNTHSC IACUC-approved protocol nos. IACUC-2021-0003 and IACUC-2020-0039. Rodents were fed either base chow (Envigo) or base diet supplemented with 1.8 g kg^−1 thymidine (Sigma T9250) starting at 2 days before infection. All procedures were conducted in accordance with the UNTHSC IACUC-approved protocol. Animals were housed in rooms undergoing 10–15 air changes per hour. Air provided to the animal rooms was controlled for temperature and humidity and is fully monitored 24 h a day. Air pressure was balanced according to room use. Lighting was controlled in individual rooms by automatic timers with a standard 12 h on, 12 h off cycle.
# Female 5–6-week-old CD-1 mice were rendered neutropenic by intraperitoneal cyclophosphamide treatment (Cytoxan) before this study. On day 0, mice were infected intramuscularly with 5.33 log c.f.u. per thigh PA14. Mice were treated subcutaneously with fluorofolin at 1 and 12 h post infection. For co-treatment, mice were treated with SMX intraperitoneally at 1 and 12 h post infection. […] In vivo efficacy was evaluated by the UNTHSC.
# [1] = Serum (plasma protein) binding; assay type: in vitro ADME
# Description: An initial t = 0 sample was collected. […] Serum binding parameters were determined as follows: • % Bound = 100% − % Unbound • logK = log(% Bound/100 − % Bound) • % Remaining = Area-ratio6h/Area-ratio0h × 100% • % Recovery was determined as (Area-ratiobuffer-chamber + Area-ratioplasma-chamber)/(Area-ratiototal sample) × 100
# [2] = mouse plasma, 1 μM, 6 h, dialysis
structure (smiles),measurement,setting,value
Nc1nc(N)c2c(ccc3c2ccn3Cc2ccnc(F)c2)n1 [fluorofolin],rescue of growth inhibition by TMI supplementation,"E. coli MG1655; E. coli MG1655, 0.3 mM TMI, fluorofolin 2× MIC",could also be rescued with TMI supplementation
same,OD600 of E. coli MG1655,"E. coli MG1655; Fluorofolin + TMI, Time 10 min",0.007
same,OD600 of E. coli MG1655,"E. coli MG1655; Fluorofolin + TMI, Time 70 min",0.0105
same,OD600 of E. coli MG1655,"E. coli MG1655; Fluorofolin + TMI, Time 80 min",0.012
same,OD600 of E. coli MG1655,"E. coli MG1655; Fluorofolin + TMI, Time 90 min",0.0135
same,OD600 of E. coli MG1655,"E. coli MG1655; Fluorofolin + TMI, Time 100 min",0.015
same,OD600 of E. coli MG1655,"E. coli MG1655; Fluorofolin + TMI, Time 110 min",0.0175
same,OD600 of E. coli MG1655,"E. coli MG1655; Fluorofolin + TMI, Time 120 min",0.0195
same,OD600 of E. coli MG1655,"E. coli MG1655; Fluorofolin + TMI, Time 130 min",0.0225
same,OD600 of E. coli MG1655,"E. coli MG1655; Fluorofolin + TMI, Time 140 min",0.025
same,OD600 of E. coli MG1655,"E. coli MG1655; Fluorofolin + TMI, Time 150 min",0.028
same,OD600 of E. coli MG1655,"E. coli MG1655; Fluorofolin + TMI, Time 160 min",0.0305
same,OD600 of E. coli MG1655,"E. coli MG1655; Fluorofolin + TMI, Time 170 min",0.0345
same,OD600 of E. coli MG1655,"E. coli MG1655; Fluorofolin + TMI, Time 180 min",0.038
same,OD600 of E. coli MG1655,"E. coli MG1655; Fluorofolin + TMI, Time 190 min",0.042
same,OD600 of E. coli MG1655,"E. coli MG1655; Fluorofolin + TMI, Time 200 min",0.0465
same,OD600 of E. coli MG1655,"E. coli MG1655; Fluorofolin + TMI, Time 210 min",0.052
same,OD600 of E. coli MG1655,"E. coli MG1655; Fluorofolin + TMI, Time 220 min",0.0575
same,OD600 of E. coli MG1655,"E. coli MG1655; Fluorofolin + TMI, Time 230 min",0.0625
same,OD600 of E. coli MG1655,"E. coli MG1655; Fluorofolin + TMI, Time 240 min",0.068
same,OD600 of E. coli MG1655,"E. coli MG1655; Fluorofolin + TMI, Time 250 min",0.0745
same,OD600 of E. coli MG1655,"E. coli MG1655; Fluorofolin + TMI, Time 260 min",0.0815
same,OD600 of E. coli MG1655,"E. coli MG1655; Fluorofolin + TMI, Time 270 min",0.0875
same,OD600 of E. coli MG1655,"E. coli MG1655; Fluorofolin + TMI, Time 280 min",0.094
same,OD600 of E. coli MG1655,"E. coli MG1655; Fluorofolin + TMI, Time 290 min",0.1
same,OD600 of E. coli MG1655,"E. coli MG1655; Fluorofolin + TMI, Time 300 min",0.105
same,OD600 of E. coli MG1655,"E. coli MG1655; Fluorofolin + TMI, Time 310 min",0.1105
same,OD600 of E. coli MG1655,"E. coli MG1655; Fluorofolin + TMI, Time 320 min",0.1155
same,OD600 of E. coli MG1655,"E. coli MG1655; Fluorofolin + TMI, Time 330 min",0.1215
same,OD600 of E. coli MG1655,"E. coli MG1655; Fluorofolin + TMI, Time 340 min",0.1265
same,OD600 of E. coli MG1655,"E. coli MG1655; Fluorofolin + TMI, Time 350 min",0.132
same,OD600 of E. coli MG1655,"E. coli MG1655; Fluorofolin + TMI, Time 360 min",0.136
same,OD600 of E. coli MG1655,"E. coli MG1655; Fluorofolin + TMI, Time 370 min",0.14
same,OD600 of E. coli MG1655,"E. coli MG1655; Fluorofolin + TMI, Time 380 min",0.1435
same,OD600 of E. coli MG1655,"E. coli MG1655; Fluorofolin + TMI, Time 390 min",0.147
same,OD600 of E. coli MG1655,"E. coli MG1655; Fluorofolin + TMI, Time 400 min",0.151
same,OD600 of E. coli MG1655,"E. coli MG1655; Fluorofolin + TMI, Time 410 min",0.155
same,OD600 of E. coli MG1655,"E. coli MG1655; Fluorofolin + TMI, Time 420 min",0.1585
same,OD600 of E. coli MG1655,"E. coli MG1655; Fluorofolin + TMI, Time 430 min",0.163
same,OD600 of E. coli MG1655,"E. coli MG1655; Fluorofolin + TMI, Time 440 min",0.167
same,OD600 of E. coli MG1655,"E. coli MG1655; Fluorofolin + TMI, Time 450 min",0.1715
same,OD600 of E. coli MG1655,"E. coli MG1655; Fluorofolin + TMI, Time 460 min",0.176
same,OD600 of E. coli MG1655,"E. coli MG1655; Fluorofolin + TMI, Time 470 min",0.181
same,OD600 of E. coli MG1655,"E. coli MG1655; Fluorofolin + TMI, Time 480 min",0.1855
same,OD600 of E. coli MG1655,"E. coli MG1655; Fluorofolin + TMI, Time 490 min",0.19
same,OD600 of E. coli MG1655,"E. coli MG1655; Fluorofolin + TMI, Time 500 min",0.1955
same,OD600 of E. coli MG1655,"E. coli MG1655; Fluorofolin + TMI, Time 510 min",0.2005
same,OD600 of E. coli MG1655,"E. coli MG1655; Fluorofolin + TMI, Time 520 min",0.2055
same,OD600 of E. coli MG1655,"E. coli MG1655; Fluorofolin + TMI, Time 530 min",0.21
same,OD600 of E. coli MG1655,"E. coli MG1655; Fluorofolin + TMI, Time 540 min",0.2145
same,OD600 of E. coli MG1655,"E. coli MG1655; Fluorofolin + TMI, Time 970 min",0.33
same,OD600 of E. coli MG1655,"E. coli MG1655; Fluorofolin, Time 10 min",-0.0085
same,OD600 of E. coli MG1655,"E. coli MG1655; Fluorofolin, Time 70 min",-0.005
same,OD600 of E. coli MG1655,"E. coli MG1655; Fluorofolin, Time 80 min",-0.003
same,OD600 of E. coli MG1655,"E. coli MG1655; Fluorofolin, Time 90 min",-0.0015
same,OD600 of E. coli MG1655,"E. coli MG1655; Fluorofolin, Time 100 min",0.001
same,OD600 of E. coli MG1655,"E. coli MG1655; Fluorofolin, Time 110 min",0.0035
same,OD600 of E. coli MG1655,"E. coli MG1655; Fluorofolin, Time 120 min",0.006
same,OD600 of E. coli MG1655,"E. coli MG1655; Fluorofolin, Time 130 min",0.009
same,OD600 of E. coli MG1655,"E. coli MG1655; Fluorofolin, Time 140 min",0.0125
same,OD600 of E. coli MG1655,"E. coli MG1655; Fluorofolin, Time 150 min",0.0155
same,OD600 of E. coli MG1655,"E. coli MG1655; Fluorofolin, Time 160 min",0.018
same,OD600 of E. coli MG1655,"E. coli MG1655; Fluorofolin, Time 170 min",0.02
same,OD600 of E. coli MG1655,"E. coli MG1655; Fluorofolin, Time 180 min",0.023
same,OD600 of E. coli MG1655,"E. coli MG1655; Fluorofolin, Time 190 min",0.0255
same,OD600 of E. coli MG1655,"E. coli MG1655; Fluorofolin, Time 200 min",0.028
same,OD600 of E. coli MG1655,"E. coli MG1655; Fluorofolin, Time 210 min",0.0305
same,OD600 of E. coli MG1655,"E. coli MG1655; Fluorofolin, Time 220 min",0.033
same,OD600 of E. coli MG1655,"E. coli MG1655; Fluorofolin, Time 230 min",0.035
same,OD600 of E. coli MG1655,"E. coli MG1655; Fluorofolin, Time 240 min",0.0365
same,OD600 of E. coli MG1655,"E. coli MG1655; Fluorofolin, Time 250 min",0.0395
same,OD600 of E. coli MG1655,"E. coli MG1655; Fluorofolin, Time 260 min",0.0405
same,OD600 of E. coli MG1655,"E. coli MG1655; Fluorofolin, Time 270 min",0.042
same,OD600 of E. coli MG1655,"E. coli MG1655; Fluorofolin, Time 280 min",0.044
same,OD600 of E. coli MG1655,"E. coli MG1655; Fluorofolin, Time 290 min",0.0455
same,OD600 of E. coli MG1655,"E. coli MG1655; Fluorofolin, Time 300 min",0.0475
same,OD600 of E. coli MG1655,"E. coli MG1655; Fluorofolin, Time 310 min",0.0485
same,OD600 of E. coli MG1655,"E. coli MG1655; Fluorofolin, Time 320 min",0.0505
same,OD600 of E. coli MG1655,"E. coli MG1655; Fluorofolin, Time 330 min",0.0515
same,OD600 of E. coli MG1655,"E. coli MG1655; Fluorofolin, Time 340 min",0.053
same,OD600 of E. coli MG1655,"E. coli MG1655; Fluorofolin, Time 350 min",0.0545
same,OD600 of E. coli MG1655,"E. coli MG1655; Fluorofolin, Time 360 min",0.0555
same,OD600 of E. coli MG1655,"E. coli MG1655; Fluorofolin, Time 370 min",0.0565
same,OD600 of E. coli MG1655,"E. coli MG1655; Fluorofolin, Time 380 min",0.0575
same,OD600 of E. coli MG1655,"E. coli MG1655; Fluorofolin, Time 390 min",0.058
same,OD600 of E. coli MG1655,"E. coli MG1655; Fluorofolin, Time 400 min",0.059
same,OD600 of E. coli MG1655,"E. coli MG1655; Fluorofolin, Time 410 min",0.0595
same,OD600 of E. coli MG1655,"E. coli MG1655; Fluorofolin, Time 420 min",0.0605
same,OD600 of E. coli MG1655,"E. coli MG1655; Fluorofolin, Time 430 min",0.061
same,OD600 of E. coli MG1655,"E. coli MG1655; Fluorofolin, Time 440 min",0.0615
same,OD600 of E. coli MG1655,"E. coli MG1655; Fluorofolin, Time 450 min",0.062
same,OD600 of E. coli MG1655,"E. coli MG1655; Fluorofolin, Time 460 min",0.062
same,OD600 of E. coli MG1655,"E. coli MG1655; Fluorofolin, Time 470 min",0.063
same,OD600 of E. coli MG1655,"E. coli MG1655; Fluorofolin, Time 480 min",0.0635
same,OD600 of E. coli MG1655,"E. coli MG1655; Fluorofolin, Time 490 min",0.0635
same,OD600 of E. coli MG1655,"E. coli MG1655; Fluorofolin, Time 500 min",0.064
same,OD600 of E. coli MG1655,"E. coli MG1655; Fluorofolin, Time 510 min",0.064
same,OD600 of E. coli MG1655,"E. coli MG1655; Fluorofolin, Time 520 min",0.064
same,OD600 of E. coli MG1655,"E. coli MG1655; Fluorofolin, Time 530 min",0.064
same,OD600 of E. coli MG1655,"E. coli MG1655; Fluorofolin, Time 540 min",0.064
same,OD600 of E. coli MG1655,"E. coli MG1655; Fluorofolin, Time 970 min",0.053
same,PA14 load in thigh,P. aeruginosa PA14,9.3 log 10(CFU/ mouse) and 9.24 log 10(CFU/ mouse) and 9.05 log 10(CFU/ mouse) and 9.1 log 10(CFU/ mouse)
same,% Bound,[1]; [2],71.7000%
same,% Recovery,[1]; [2],91.8800%
same,% Unbound,[1]; [2],28.3000%
same,"fraction unbound at 6 h, 1 μM","[1]; mouse plasma, 1 μM, 6 h, dialysis, read-out: % Bound (converted)",0.283
same,LogK,"[1]; mouse plasma, log(% Bound/(100 − % Bound))",0.4000
same,"recovery at 6 h, 1 μM","[1]; mouse, 1 μM, 6 h, dialysis",91.9%
same,"remaining at 6 h, 1 μM","[1]; mouse, read-out: % Remaining after 6 hours",89.7%
